The record followed here is US20250163104A1, “MACROCYCLIC IMMUNOMODULATORS” (priority 2021, published 2025).

Where a SMILES comes first, the peptide text is derived from it. Bridges are numbered along the chain shown (N, C = ends). [ ]: non-standard residue; d: D form. The star is where a group is joined. Ala(morpholin-4-yl) = N[C@@H](CN1CCOCC1)C(=O)O; Phe(4-COOH) = N[C@@H](Cc1ccc(C(=O)O)cc1)C(=O)O; Bip = N[C@@H](Cc1ccc(-c2ccccc2)cc1)C(=O)O; Phe(3-Me) = Cc1cccc(C[C@H](N)C(=O)O)c1; Val(3-OH) = CC(C)(O)[C@H](N)C(=O)O; Cha = N[C@@H](CC1CCCCC1)C(=O)O; Carboxymethyl = O=C(O)C*; Orn = NCCC[C@H](N)C(=O)O; Pra = C#CC[C@H](N)C(=O)O; Dab = NCC[C@H](N)C(=O)O; Dap = NC[C@H](N)C(=O)O; Propargyl = C#CC*

The experiment deals with T1, human PD-1 / PD-L1-Ig binding on Jurkat cell line over-expressing human PD-1 (Jurkat-PD-1) (Homo sapiens, UniProt Q15116).
T1 construct: expressed in transfected cells; host or cells: Jurkat
T1 sequence (Q15116 25-288): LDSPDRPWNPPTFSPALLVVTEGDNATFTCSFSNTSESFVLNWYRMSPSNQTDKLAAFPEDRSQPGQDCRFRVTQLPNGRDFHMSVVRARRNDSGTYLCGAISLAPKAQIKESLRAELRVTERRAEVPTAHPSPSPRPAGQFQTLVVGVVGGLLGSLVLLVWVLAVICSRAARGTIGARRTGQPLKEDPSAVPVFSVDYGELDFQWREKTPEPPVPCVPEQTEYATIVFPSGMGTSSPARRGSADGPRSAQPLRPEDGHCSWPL
In words: Jurkat-PD-1 Cell Binding High-Content Screening Assay (CBA). It is filed as cell-based. The following applies: Jurkat-PD-1 cells, PE-labeled PD-L1-Ig 20 nM final; read-out: Jurkat HPD1_PDL1 IC50. The essentials: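 Jurkat cells over-expressing human PD-1, in DMEM/10% FCS, pre-incubated with compound 2 h at 37° C. PE-labeled human PD-L1-Ig (20 nM final) added for 1 h; cells fixed in paraformaldehyde with Hoechst 33342 nuclear stain, washed, and bound fluorescence quantified by high-content imaging.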
Usually IC50 stands for the concentration needed to halve the response being measured. In the case of `C#CCOc1ccc(C[C@@H]2NC(=O)[C@H](Cc3ccc(-c4ccccc4)cc3)NC(=O)[C@H](Cc3ccc(C(=O)O)cc3)NC(=O)[C@H](Cc3cccc(C)c3)NC(=O)[C@H](CC(=O)O)NC(=O)[C@H](Cc3ccc(C(=O)O)cc3)NC(=O)[C@H](Cc3ccc(OCC(=O)O)cc3)NC(=O)CSC[C@@H](C(=O)N[C@@H](CCN)C(N)=O)NC(=O)[C@H](CCC(=O)O)NC(=O)[C@H](C(C)C)NC(=O)[C@H](CC3CCCCC3)NC(=O)[C@H](CCN)NC(=O)[C@@H](CC(C)C)NC(=O)[C@H](CCCN)NC2=O)cc1` [Compound 1844] ({CH2CO}-Y(Carboxymethyl)[Phe(4-COOH)]D[Phe(3-Me)][Phe(4-COOH)][Bip]Y(Propargyl)[Orn][dL][Dab][Cha]VEC[Dab]-NH2; thioether N-14), the IC50 stood at 13.2 nM.

For `C#CC[C@H](NC(=O)[C@H](CCN)NC(=O)[C@@H]1CSCC(=O)N[C@@H](CN)C(=O)N[C@@H](Cc2ccc(C(=O)O)cc2)C(=O)N[C@@H](CC(=O)O)C(=O)N[C@@H](Cc2cccc(C)c2)C(=O)N[C@@H](Cc2ccc(C(=O)O)cc2)C(=O)N[C@@H](Cc2ccc(-c3ccccc3)cc2)C(=O)N[C@@H](Cc2ccc(C(=O)O)cc2)C(=O)N[C@@H](CCCN)C(=O)N[C@H](CC(C)C)C(=O)N[C@@H](CCN)C(=O)N[C@@H](CC2CCCCC2)C(=O)N[C@@H](C(C)(C)O)C(=O)N[C@@H](CO)C(=O)N1)C(N)=O` [Compound 1845] ({CH2CO}-[Dap][Phe(4-COOH)]D[Phe(3-Me)][Phe(4-COOH)][Bip][Phe(4-COOH)][Orn][dL][Dab][Cha][Val(3-OH)]SC[Dab][Pra]-NH2; thioether N-14), the half-maximal inhibitory concentration (IC50) was 7.3 nM.

Turning to `C#CC[C@H](NC(=O)[C@H](CCN)NC(=O)[C@@H]1CSCC(=O)N[C@@H](CCCN)C(=O)N[C@@H](Cc2ccc(C(=O)O)cc2)C(=O)N[C@@H](CC(=O)O)C(=O)N[C@@H](Cc2cccc(C)c2)C(=O)N[C@@H](Cc2ccc(C(=O)O)cc2)C(=O)N[C@@H](Cc2ccc(-c3ccccc3)cc2)C(=O)N[C@@H](Cc2ccc(C(=O)O)cc2)C(=O)N[C@@H](CCCN)C(=O)N[C@H](CC(C)C)C(=O)N[C@@H](CCN)C(=O)N[C@@H](CC2CCCCC2)C(=O)N[C@@H](C(C)(C)O)C(=O)N[C@@H](CO)C(=O)N1)C(N)=O` [Compound 1846] ({CH2CO}-[Orn][Phe(4-COOH)]D[Phe(3-Me)][Phe(4-COOH)][Bip][Phe(4-COOH)][Orn][dL][Dab][Cha][Val(3-OH)]SC[Dab][Pra]-NH2; thioether N-14), the IC50 turned out to be 8.3 nM.

For the compound `C#CC[C@H](NC(=O)[C@H](CCN)NC(=O)[C@@H]1CSCC(=O)N[C@@H](CN2CCOCC2)C(=O)N[C@@H](Cc2ccc(C(=O)O)cc2)C(=O)N[C@@H](CC(=O)O)C(=O)N[C@@H](Cc2cccc(C)c2)C(=O)N[C@@H](Cc2ccc(C(=O)O)cc2)C(=O)N[C@@H](Cc2ccc(-c3ccccc3)cc2)C(=O)N[C@@H](Cc2ccc(C(=O)O)cc2)C(=O)N[C@@H](CCCN)C(=O)N[C@H](CC(C)C)C(=O)N[C@@H](CCN)C(=O)N[C@@H](CC2CCCCC2)C(=O)N[C@@H](C(C)(C)O)C(=O)N[C@@H](CO)C(=O)N1)C(N)=O` [Compound 1847] ({CH2CO}-[Ala(morpholin-4-yl)][Phe(4-COOH)]D[Phe(3-Me)][Phe(4-COOH)][Bip][Phe(4-COOH)][Orn][dL][Dab][Cha][Val(3-OH)]SC[Dab][Pra]-NH2; thioether N-14), the half-maximal inhibitory concentration (IC50) amounted to 2.1 nM.

With `C#CC[C@H](NC(=O)[C@H](CCN)NC(=O)[C@@H]1CSCC(=O)N[C@@H](CN)C(=O)N[C@@H](Cc2ccc(C(=O)O)cc2)C(=O)N[C@@H](CC(=O)O)C(=O)N[C@@H](Cc2cccc(C)c2)C(=O)N[C@@H](Cc2ccc(C(=O)O)cc2)C(=O)N[C@@H](Cc2ccc(-c3ccccc3)cc2)C(=O)N[C@@H](Cc2ccc(C(=O)O)cc2)C(=O)N[C@@H](CCCN)C(=O)N[C@H](CC(C)C)C(=O)N[C@@H](CCN)C(=O)N[C@@H](CC2CCCCC2)C(=O)N[C@@H](C(C)(C)O)C(=O)N[C@@H](Cc2cnc[nH]2)C(=O)N1)C(N)=O` [Compound 1848] ({CH2CO}-[Dap][Phe(4-COOH)]D[Phe(3-Me)][Phe(4-COOH)][Bip][Phe(4-COOH)][Orn][dL][Dab][Cha][Val(3-OH)]HC[Dab][Pra]-NH2; thioether N-14), the IC50 amounted to 8.3 nM.

With `C#CC[C@H](NC(=O)[C@H](CCN)NC(=O)[C@@H]1CSCC(=O)N[C@@H](CCN)C(=O)N[C@@H](Cc2ccc(C(=O)O)cc2)C(=O)N[C@@H](CC(=O)O)C(=O)N[C@@H](Cc2cccc(C)c2)C(=O)N[C@@H](Cc2ccc(C(=O)O)cc2)C(=O)N[C@@H](Cc2ccc(-c3ccccc3)cc2)C(=O)N[C@@H](Cc2ccc(C(=O)O)cc2)C(=O)N[C@@H](CCCN)C(=O)N[C@H](CC(C)C)C(=O)N[C@@H](CCN)C(=O)N[C@@H](CC2CCCCC2)C(=O)N[C@@H](C(C)(C)O)C(=O)N[C@@H](Cc2cnc[nH]2)C(=O)N1)C(N)=O` [Compound 1849] ({CH2CO}-[Dab][Phe(4-COOH)]D[Phe(3-Me)][Phe(4-COOH)][Bip][Phe(4-COOH)][Orn][dL][Dab][Cha][Val(3-OH)]HC[Dab][Pra]-NH2; thioether N-14), the half-maximal inhibitory concentration (IC50) was determined as 7.8 nM.

With `C#CC[C@H](NC(=O)[C@H](CCN)NC(=O)[C@@H]1CSCC(=O)N[C@@H](CCN)C(=O)N[C@@H](Cc2ccc(C(=O)O)cc2)C(=O)N[C@@H](CC(=O)O)C(=O)N[C@@H](Cc2cccc(C)c2)C(=O)N[C@@H](Cc2ccc(C(=O)O)cc2)C(=O)N[C@@H](Cc2ccc(-c3ccccc3)cc2)C(=O)N[C@@H](Cc2ccc(C(=O)O)cc2)C(=O)N[C@@H](CCCN)C(=O)N[C@H](CC(C)C)C(=O)N[C@@H](CCN)C(=O)N[C@@H](CC2CCCCC2)C(=O)N[C@@H](C(C)(C)O)C(=O)N[C@@H](CCCN)C(=O)N1)C(N)=O` [Compound 1850] ({CH2CO}-[Dab][Phe(4-COOH)]D[Phe(3-Me)][Phe(4-COOH)][Bip][Phe(4-COOH)][Orn][dL][Dab][Cha][Val(3-OH)][Orn]C[Dab][Pra]-NH2; thioether N-14), the IC50 turned out to be 5.2 nM.

For `C#CC[C@H](NC(=O)[C@H](CCN)NC(=O)[C@@H]1CSCC(=O)N[C@@H](CCN)C(=O)N[C@@H](Cc2ccc(OCC(=O)O)cc2)C(=O)N[C@@H](CC(=O)O)C(=O)N[C@@H](Cc2cccc(C)c2)C(=O)N[C@@H](Cc2ccc(OCC(=O)O)cc2)C(=O)N[C@@H](Cc2ccc(-c3ccccc3)cc2)C(=O)N[C@@H](Cc2ccc(OCC(=O)O)cc2)C(=O)N[C@@H](CCCN)C(=O)N[C@H](CC(C)C)C(=O)N[C@@H](CCN)C(=O)N[C@@H](CC2CCCCC2)C(=O)N[C@@H](C(C)(C)O)C(=O)N[C@@H](CO)C(=O)N1)C(N)=O` [Compound 1851] ({CH2CO}-[Dab]Y(Carboxymethyl)D[Phe(3-Me)]Y(Carboxymethyl)[Bip]Y(Carboxymethyl)[Orn][dL][Dab][Cha][Val(3-OH)]SC[Dab][Pra]-NH2; thioether N-14), the IC50 stood at 5.2 nM.

With `C#CC[C@H](NC(=O)[C@H](CCN)NC(=O)[C@@H]1CSCC(=O)N[C@@H](CN2CCOCC2)C(=O)N[C@@H](Cc2ccc(OCC(=O)O)cc2)C(=O)N[C@@H](CC(=O)O)C(=O)N[C@@H](Cc2cccc(C)c2)C(=O)N[C@@H](Cc2ccc(OCC(=O)O)cc2)C(=O)N[C@@H](Cc2ccc(-c3ccccc3)cc2)C(=O)N[C@@H](Cc2ccc(OCC(=O)O)cc2)C(=O)N[C@@H](CCCN)C(=O)N[C@H](CC(C)C)C(=O)N[C@@H](CCN)C(=O)N[C@@H](CC2CCCCC2)C(=O)N[C@@H](C(C)(C)O)C(=O)N[C@@H](CO)C(=O)N1)C(N)=O` [Compound 1852] ({CH2CO}-[Ala(morpholin-4-yl)]Y(Carboxymethyl)D[Phe(3-Me)]Y(Carboxymethyl)[Bip]Y(Carboxymethyl)[Orn][dL][Dab][Cha][Val(3-OH)]SC[Dab][Pra]-NH2; thioether N-14), the IC50 turned out to be 18.9 nM.

As to `C#CC[C@H](NC(=O)[C@H](CCN)NC(=O)[C@@H]1CSCC(=O)N[C@@H](CCCN)C(=O)N[C@@H](Cc2ccc(OCC(=O)O)cc2)C(=O)N[C@@H](CC(=O)O)C(=O)N[C@@H](Cc2cccc(C)c2)C(=O)N[C@@H](Cc2ccc(OCC(=O)O)cc2)C(=O)N[C@@H](Cc2ccc(-c3ccccc3)cc2)C(=O)N[C@@H](Cc2ccc(OCC(=O)O)cc2)C(=O)N[C@@H](CCCN)C(=O)N[C@H](CC(C)C)C(=O)N[C@@H](CCN)C(=O)N[C@@H](CC2CCCCC2)C(=O)N[C@@H](C(C)(C)O)C(=O)N[C@@H](CO)C(=O)N1)C(N)=O` [Compound 1853] ({CH2CO}-[Orn]Y(Carboxymethyl)D[Phe(3-Me)]Y(Carboxymethyl)[Bip]Y(Carboxymethyl)[Orn][dL][Dab][Cha][Val(3-OH)]SC[Dab][Pra]-NH2; thioether N-14), the concentration for half-maximal inhibition (IC50) was 6.9 nM.

For the compound `C#CC[C@H](NC(=O)[C@H](CCN)NC(=O)[C@@H]1CSCC(=O)N[C@@H](CCCN)C(=O)N[C@@H](Cc2ccc(OCC(=O)O)cc2)C(=O)N[C@@H](CC(=O)O)C(=O)N[C@@H](Cc2cccc(C)c2)C(=O)N[C@@H](Cc2ccc(OCC(=O)O)cc2)C(=O)N[C@@H](Cc2ccc(-c3ccccc3)cc2)C(=O)N[C@@H](Cc2ccc(OCC(=O)O)cc2)C(=O)N[C@@H](CCCN)C(=O)N[C@H](CC(C)C)C(=O)N[C@@H](CCN)C(=O)N[C@@H](CC2CCCCC2)C(=O)N[C@@H](C(C)(C)O)C(=O)N[C@@H]([C@@H](C)O)C(=O)N1)C(N)=O` [Compound 1854] ({CH2CO}-[Orn]Y(Carboxymethyl)D[Phe(3-Me)]Y(Carboxymethyl)[Bip]Y(Carboxymethyl)[Orn][dL][Dab][Cha][Val(3-OH)]TC[Dab][Pra]-NH2; thioether N-14), the 50% inhibitory concentration (IC50) was 15.1 nM.

For `C#CC[C@H](NC(=O)[C@H](CCN)NC(=O)[C@@H]1CSCC(=O)N[C@@H](CCCN)C(=O)N[C@@H](Cc2ccc(OCC(=O)O)cc2)C(=O)N[C@@H](CC(=O)O)C(=O)N[C@@H](Cc2cccc(C)c2)C(=O)N[C@@H](Cc2ccc(OCC(=O)O)cc2)C(=O)N[C@@H](Cc2ccc(-c3ccccc3)cc2)C(=O)N[C@@H](Cc2ccc(OCC(=O)O)cc2)C(=O)N[C@@H](CCCN)C(=O)N[C@H](CC(C)C)C(=O)N[C@@H](CCN)C(=O)N[C@@H](CC2CCCCC2)C(=O)N[C@@H](C(C)C)C(=O)N[C@@H](CO)C(=O)N1)C(N)=O` [Compound 1855] ({CH2CO}-[Orn]Y(Carboxymethyl)D[Phe(3-Me)]Y(Carboxymethyl)[Bip]Y(Carboxymethyl)[Orn][dL][Dab][Cha]VSC[Dab][Pra]-NH2; thioether N-14), the IC50 was 6.8 nM.
